According to ChEMBL document CHEMBL4219141, “Identification of an aminothiazole series of RORβ modulators” (Bioorg Med Chem Lett, 2018):
Calls of active or inactive are those of the source. No cut-off for these calls is given here.

What was measured:
[1] = Half life in mouse liver microsomes at 1 uM in presence of NADPH by LC-MS/MS analysis; type: ADME, microsome
[2] = target: T1, Nuclear receptor ROR-gamma (Homo sapiens, UniProt P51449)
T1 sequence (P51449 whole entry): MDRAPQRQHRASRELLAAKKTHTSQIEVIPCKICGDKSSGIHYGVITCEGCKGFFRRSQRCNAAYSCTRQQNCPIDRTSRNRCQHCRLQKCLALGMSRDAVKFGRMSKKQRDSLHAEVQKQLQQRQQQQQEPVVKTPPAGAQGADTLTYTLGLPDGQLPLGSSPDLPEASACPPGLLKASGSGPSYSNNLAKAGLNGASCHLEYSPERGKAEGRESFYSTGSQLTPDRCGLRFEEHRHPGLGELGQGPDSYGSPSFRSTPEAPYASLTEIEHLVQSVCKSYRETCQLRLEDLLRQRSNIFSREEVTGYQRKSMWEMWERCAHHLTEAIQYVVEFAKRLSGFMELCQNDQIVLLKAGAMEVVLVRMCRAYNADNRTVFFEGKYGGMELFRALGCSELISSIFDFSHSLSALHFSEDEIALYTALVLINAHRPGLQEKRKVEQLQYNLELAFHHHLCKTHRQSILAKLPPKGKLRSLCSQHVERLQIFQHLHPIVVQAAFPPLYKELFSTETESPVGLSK

HEK-293T = experiment: Toxicity in HEK293T cells at 10 uM; type: cell-based; conditions: human
[3] = target: T2, Nuclear receptor ROR-alpha (Homo sapiens) (UniProt P35398); experiment: Inverse agonist activity at GAL4-DNA binding domain-fused human RORalpha ligand binding domain expressed in HEK293T cells incubated for 20 hrs by luciferase reporter gene assay; type: cell-based
T2 sequence (whole entry): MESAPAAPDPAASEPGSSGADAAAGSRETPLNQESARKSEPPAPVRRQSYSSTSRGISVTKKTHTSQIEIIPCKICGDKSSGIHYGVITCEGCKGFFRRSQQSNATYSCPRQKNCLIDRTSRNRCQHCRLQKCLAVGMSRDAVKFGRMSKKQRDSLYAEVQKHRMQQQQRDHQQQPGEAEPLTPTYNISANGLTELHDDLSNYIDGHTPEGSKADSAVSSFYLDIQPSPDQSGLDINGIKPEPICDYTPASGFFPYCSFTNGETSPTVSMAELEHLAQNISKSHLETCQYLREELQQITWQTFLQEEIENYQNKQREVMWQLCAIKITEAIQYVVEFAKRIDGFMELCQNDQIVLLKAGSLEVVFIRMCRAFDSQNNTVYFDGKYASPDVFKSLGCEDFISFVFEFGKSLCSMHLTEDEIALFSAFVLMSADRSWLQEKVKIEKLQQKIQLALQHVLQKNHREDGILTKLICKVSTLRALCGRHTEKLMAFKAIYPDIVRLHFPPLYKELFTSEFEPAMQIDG

Row | Compound | t1/2 [1] [min] | IC50 [2] [µM] | Activity (HEK-293T) | Activity [3]
1 | Nc1nc(-c2cccc(C(F)(F)F)c2)c(C(=O)c2ccccc2Cl)s1 | 2.9 |  |  | 
2 | Nc1nc(-c2ccc(Cl)c(C(F)(F)F)c2)c(C(=O)c2ccccc2Cl)s1 |  | > 40 |  | 
3 | COc1ccccc1C(=O)c1sc(N)nc1-c1cc(C(F)(F)F)cc(C(F)(F)F)c1 | 5.2 |  |  | 
4 | Nc1nc(-c2cccc(Cl)c2)c(C(=O)c2ccccc2Cl)s1 | 1.9 |  | Non-Toxic | inactive
5 | Nc1nc(-c2cccc(C(F)(F)F)c2)c(C(=O)c2ccccc2Br)s1 |  | > 40 |  | 
6 | Nc1nc(-c2cc(Br)cc(C(F)(F)F)c2)c(C(=O)c2ccccc2Cl)s1 | 5.2 | > 40 | Non-Toxic | inactive
7 | Nc1nc(-c2cccc(C(F)(F)F)c2)c(C(=O)c2ccccc2C(F)(F)F)s1 |  | > 40 |  | 
8 | COc1ccccc1C(=O)c1sc(N)nc1-c1cccc(C(F)(F)F)c1 |  | > 40 |  | 
9 | Nc1nc(-c2cccc(C(F)(F)F)c2)c(C(=O)c2c(F)cccc2Cl)s1 | 2.7 | > 40 |  | 
10 | Nc1nc(-c2cc(Cl)cc(C(F)(F)F)c2)c(C(=O)c2ccccc2Cl)s1 | 6.1 |  |  | 
11 | COc1ccccc1C(=O)c1sc(N)nc1-c1ccc(Cl)c(C(F)(F)F)c1 |  | > 40 | Non-Toxic | inactive
12 | CCS(=O)(=O)c1ccc(CC(=O)Nc2nc(-c3ccccc3Cl)c(C(=O)c3ccccc3Cl)s2)cc1 | 34 |  | Non-Toxic | 
13 | Nc1nc(-c2cc(C(F)(F)F)cc(C(F)(F)F)c2)c(C(=O)c2ccccc2Cl)s1 | 7.4 |  |  | 
14 | COc1ccccc1C(=O)c1sc(N)nc1-c1cc(Br)cc(C(F)(F)F)c1 | 2.3 |  | Non-Toxic | inactive
15 | Nc1nc(-c2cccc(C(F)(F)F)c2)c(C(=O)c2c(F)cccc2C(F)(F)F)s1 |  | > 40 |  | 
16 | Nc1nc(-c2ccc(Br)c(C(F)(F)F)c2)c(C(=O)c2ccccc2Cl)s1 | 2.5 |  |  | 
